Structures can show the parent of a compound that is named as a salt.
System: aorta rings
Assay: Vasorelaxant action in vitro (phenylephrine-contracted rabbit aorta rings, organ bath)
Conditions: Oryctolagus cuniculus; concentration needed to reduce the phenylephrine contraction of rabbit aorta rings by 50%
Experimental: B-1. Vasorelaxant Action In Vitro
Rabbits are stunned by a blow to the neck and exsanguinated. The aorta is removed, freed from adhering tissue and divided into rings of width 1.5 mm, which are placed individually under prestress into 5 ml organ baths with carbogen-sparged Krebs-Henseleit solution at 37° C. having the following composition (each mM): sodium chloride 119; potassium chloride: 4.8; calcium chloride dihydrate: 1; magnesium sulfate heptahydrate: 1.4; potassium dihydrogenphosphate: 1.2; sodium hydrogencarbonate: 25; glucose: 10. The contractile force is determined with Statham UC2 cells, amplified and digitalized using A/D transducers (DAS-1802 HC, Keithley Instruments Munich), and recorded in parallel on linear recorders. To obtain a contraction, phenylephrine is added to the bath cumulatively in increasing concentration. After several control cycles, the substance to be studied is added in increasing dosage each time in every further run, and the magnitude of the contraction is compared with the magnitude of the contraction attained in the last preceding run. This is used to calculate the concentration needed to reduce the magnitude of the control value by 50% (IC50 value). The standard administration volume is 5 μl; the DMSO content in the bath solution corresponds to 0.1%.

Structure (SMILES) | IC50
CC(C)(O)Cn1c(=O)[nH]c2nc(-c3nn(Cc4ccccc4F)c4ncccc34)nc(N)c21 [Example 2, 6-Amino-2-[1-(2-fluorobenzyl)-1H-pyrazolo[3,4-b]pyridin-3-yl]-7-(2-hydroxy-2-methylpropyl)-7,9-dihydro-8H-purin-8-one] | 49 nM
Nc1nc(-c2nn(Cc3ccccc3F)c3ncccc23)nc2cccc(Cl)c12 [Example 7, 5-Chloro-2-[1-(2-fluorobenzyl)-1H-pyrazolo[3,4-b]pyridin-3-yl]quinazolin-4-amine] | 1090 nM
Nc1nc(-c2nn(Cc3ccccc3F)c3ncccc23)nc2sccc12 [Example 12, 2-[1-(2-Fluorobenzyl)-1H-pyrazolo[3,4-b]pyridin-3-yl]thieno[2,3-d]pyrimidin-4-amine] | 284 nM
Cc1nsc2nc(-c3nn(Cc4ccccc4F)c4ncccc34)nc(N)c12 [Example 13, 6-[1-(2-Fluorobenzyl)-1H-pyrazolo[3,4-b]pyridin-3-yl]-3-methyl[1,2]thiazolo[5,4-d]pyrimidin-4-amine] | 246 nM
Nc1nc(-c2nn(Cc3ccccc3F)c3ncccc23)nc2onc(C(F)(F)F)c12 [Example 15, 6-[1-(2-Fluorobenzyl)-1H-pyrazolo[3,4-b]pyridin-3-yl]-3-(trifluoromethyl)[1,2]oxazolo[5,4-d]pyrimidin-4-amine] | 730 nM
Nc1nc(-c2nn(Cc3ccccc3F)c3ncccc23)nc2[nH]nc(OCCO)c12 [Example 21, 2-({4-Amino-6-[1-(2-fluorobenzyl)-1H-pyrazolo[3,4-b]pyridin-3-yl]-1H-pyrazolo[3,4-d]pyrimidin-3-yl}oxy)ethanol] | 233 nM
CC1=Nc2c(N)nc(-c3nn(Cc4ccccc4F)c4ncccc34)nc2NCC1 [Example 23, 2-[1-(2-Fluorobenzyl)-1H-pyrazolo[3,4-b]pyridin-3-yl]-6-methyl-8,9-dihydro-7H-pyrimido[4,5-b][1,4]diazepin-4-amine] | 197 nM
Nc1nc(-c2nn(Cc3ccccc3F)c3ncccc23)nc2[nH]c(=S)[nH]c12 [Example 28, 6-Amino-2-[1-(2-fluorobenzyl)-1H-pyrazolo[3,4-b]pyridin-3-yl]-7,9-dihydro-8H-purine-8-thione] | 800 nM
CSc1nc2c(N)nc(-c3nn(Cc4ccccc4F)c4ncccc34)nc2[nH]1 [Example 29, 2-[1-(2-Fluorobenzyl)-1H-pyrazolo[3,4-b]pyridin-3-yl]-8-(methylsulfanyl)-7H-purin-6-amine] | 31 nM
Nc1nc(-c2nn(Cc3ccccc3F)c3ncccc23)nc2[nH]c(=O)n(CC(F)(F)F)c12 [Example 44, 6-Amino-2-[1-(2-fluorobenzyl)-1H-pyrazolo[3,4-b]pyridin-3-yl]-7-(2,2,2-trifluoroethyl)-7,9-dihydro-8H-purin-8-one] | 83 nM
O=c1[nH]c2nc(-c3nn(Cc4ccccc4F)c4ncccc34)ncc2n1CC(F)(F)F [Example 45, 2-[1-(2-Fluorobenzyl)-1H-pyrazolo[3,4-b]pyridin-3-yl]-7-(2,2,2-trifluoroethyl)-7,9-dihydro-8H-purin-8-one] | 41 nM
Nc1nc(-c2nn(Cc3ccccc3F)c3ncccc23)nc2[nH]c(=O)c(C(F)(F)F)nc12 [Example 50, 4-Amino-2-[1-(2-fluorobenzyl)-1H-pyrazolo[3,4-b]pyridin-3-yl]-6-(trifluoromethyl)pteridin-7(8H)-one] | 1390 nM
Nc1nc(-c2nn(Cc3ccccc3F)c3ncccc23)nc2nccnc12 [Example 52, 2-[1-(2-Fluorobenzyl)-1H-pyrazolo[3,4-b]pyridin-3-yl]pteridin-4-amine] | 126 nM
Nc1nc(-c2nn(Cc3ccccc3F)c3ncccc23)nc2[nH]nnc12 [Example 53, 5-[1-(2-Fluorobenzyl)-1H-pyrazolo[3,4-b]pyridin-3-yl]-3H-[1,2,3]triazolo[4,5-d]pyrimidin-7-amine] | 424 nM
Nc1nc(-c2nn(Cc3ccccc3F)c3ncccc23)nc2nsnc12 [Example 57, 5-[1-(2-Fluorobenzyl)-1H-pyrazolo[3,4-b]pyridin-3-yl][1,2,5]thiadiazolo[3,4-d]pyrimidin-7-amine] | 39 nM
Nc1nc(-c2nn(Cc3ccccc3F)c3ncccc23)nc2ncn(CC(F)(F)F)c12 [Example 60, 2-[1-(2-Fluorobenzyl)-1H-pyrazolo[3,4-b]pyridin-3-yl]-7-(2,2,2-trifluoroethyl)-7H-purin-6-amine] | 199 nM
Nc1nc(-c2nn(Cc3ccccc3F)c3ncccc23)nc2nc(C(F)(F)F)n(CC(F)(F)F)c12 [Example 61, 2-[1-(2-Fluorobenzyl)-1H-pyrazolo[3,4-b]pyridin-3-yl]-7-(2,2,2-trifluoroethyl)-8-(trifluoromethyl)-7H-purin-6-amine] | 759 nM

Structure (SMILES) | IC50
Nc1nc(-c2nn(Cc3ccccc3F)c3ncc(F)cc23)nc2[nH]c(=O)n(CC(F)(F)F)c12 [Example 62, 6-Amino-2-[5-fluoro-1-(2-fluorobenzyl)-1H-pyrazolo[3,4-b]pyridin-3-yl]-7-(2,2,2-trifluoroethyl)-7,9-dihydro-8H-purin-8-one] | 114 nM
COC(=O)N1CCNc2nc(-c3nn(Cc4ccccc4F)c4ncccc34)ccc21 [Example 63, Methyl 6-[1-(2-fluorobenzyl)-1H-pyrazolo[3,4-b]pyridin-3-yl]-3,4-dihydropyrido[2,3-b]pyrazine-1(2H)-carboxylate] | 139 nM
O=c1[nH]c2ccc(-c3nn(Cc4ccccc4F)c4ncccc34)nc2[nH]1 [Example 71, 5-[1-(2-Fluorobenzyl)-1H-pyrazolo[3,4-b]pyridin-3-yl]-1,3-dihydro-2H-imidazo[4,5-b]pyridin-2-one] | 86 nM
Fc1ccccc1Cn1nc(-c2ncc3ccccc3n2)c2cccnc21 [Example 74, 2-[1-(2-Fluorobenzyl)-1H-pyrazolo[3,4-b]pyridin-3-yl]quinazoline] | 713 nM
CCOC(=O)N1CCNc2nc(-c3nn(Cc4ccccc4F)c4ncccc34)nc(N)c21 [Example 76, Ethyl 4-amino-2-[1-(2-fluorobenzyl)-1H-pyrazolo[3,4-b]pyridin-3-yl]-7,8-dihydropteridine-5(6H)-carboxylate formate] | 23 nM
CC(C)c1nc2c(N)nc(-c3nn(Cc4ccccc4F)c4ncccc34)nc2[nH]c1=O [Example 83, 4-Amino-2-[1-(2-fluorobenzyl)-1H-pyrazolo[3,4-b]pyridin-3-yl]-6-isopropylpteridin-7(8H)-one] | 27 nM
Nc1nc(-c2nn(Cc3ccccc3F)c3ncccc23)nc2ccncc12 [Example 84, 2-[1-(2-Fluorobenzyl)-1H-pyrazolo[3,4-b]pyridin-3-yl]pyrido[4,3-d]pyrimidin-4-amine] | 155 nM
Nc1nc(-c2nn(Cc3ccccc3F)c3ncccc23)nc2cccnc12 [Example 85, 2-[1-(2-Fluorobenzyl)-1H-pyrazolo[3,4-b]pyridin-3-yl]pyrido[3,2-d]pyrimidin-4-amine] | 164 nM
Cn1c(=O)[nH]c2nc(-n3nc(Cc4ccccc4F)c4ncccc43)nc(N)c21 [Example 89, 6-Amino-2-[3-(2-fluorobenzyl)-1H-pyrazolo[4,3-b]pyridin-1-yl]-7-methyl-7,9-dihydro-8H-purin-8-one] | 146 nM
Nc1nc(-n2nc(Cc3ccccc3F)c3ncccc32)nc2[nH]c(=O)[nH]c12 [Example 90, 6-Amino-2-[3-(2-fluorobenzyl)-1H-pyrazolo[4,3-b]pyridin-1-yl]-7,9-dihydro-8H-purin-8-one] | 5980 nM
Nc1nc(-n2nc(Cc3ccccc3F)c3ncccc32)nc2[nH]c(=O)n(Cc3ccc(F)cc3)c12 [Example 91, 6-Amino-7-(4-fluorobenzyl)-2-[3-(2-fluorobenzyl)-1H-pyrazolo[4,3-b]pyridin-1-yl]-7,9-dihydro-8H-purin-8-one] | 475 nM
Nc1nc(-n2nc(Cc3ccccc3F)c3ncccc32)nc2[nH]c(=O)n(CCO)c12 [Example 92, 6-Amino-2-[3-(2-fluorobenzyl)-1H-pyrazolo[4,3-b]pyridin-1-yl]-7-(2-hydroxyethyl)-7,9-dihydro-8H-purin-8-one] | 535 nM
Cn1c(=O)[nH]c2nc(-c3nn(Cc4ccccc4F)c4ncc(F)cc34)ncc21 [Example 95, 2-[5-Fluoro-1-(2-fluorobenzyl)-1H-pyrazolo[3,4-b]pyridin-3-yl]-7-methyl-7,9-dihydro-8H-purin-8-one] | 44 nM
Fc1cnc2c(c1)c(-c1ncc3cc[nH]c3n1)nn2Cc1ccccc1F [Example 97, 5-Fluoro-1-(2-fluorobenzyl)-3-(7H-pyrrolo[2,3-d]pyrimidin-2-yl)-1H-pyrazolo[3,4-b]pyridine] | 464 nM
COC(=O)N1CC(=O)Nc2nc(-c3nn(Cc4ccccc4F)c4ncccc34)nc(N)c21 [Example 98, Methyl 4-amino-2-[1-(2-fluorobenzyl)-1H-pyrazolo[3,4-b]pyridin-3-yl]-7-oxo-7,8-dihydropteridine-5(6H)-carboxylate] | 71 nM
CNc1nc(-c2nn(Cc3ccccc3F)c3ncccc23)nc2[nH]c(=O)n(CC(F)F)c12 [Example 103, 7-(2,2-Difluoroethyl)-2-[1-(2-fluorobenzyl)-1H-pyrazolo[3,4-b]pyridin-3-yl]-6-(methylamino)-7,9-dihydro-8H-purin-8-one] | 658 nM
O=c1[nH]c2nc(-c3nn(Cc4ccccc4F)c4ncccc34)ncc2n1C1CCN(C2CC2)CC1 [Example 104, 7-(1-Cyclopropylpiperidin-4-yl)-2-[1-(2-fluorobenzyl)-1H-pyrazolo[3,4-b]pyridin-3-yl]-7,9-dihydro-8H-purin-8-one] | 40 nM
